Experimental findings from patent US12319674B2, “Isatin derivatives” (KING SAUD UNIVERSITY, priority 2020, dated 2025) are described below.

The structures appear in SMILES notation.

Holding throughout (experiment): NCI-60 Human Tumor Cell Lines Screen, one-dose screen
Common to all, as to format: cell-based

In assay [1] the test system is Breast Cancer cells (MDA-MB-468). To be noted: MDA-MB-468 cells, 10^-5 M, 2 days. How it is done: (§1) Anticancer activities of the exemplary isatin derivatives were tested by the NIH National Cancer Institutes (NCI), with results summarized in FIGS. 2A-3B. The anticancer activity was tested by NCI, division of cancer treatment and diagnosis, according to the NCI-60 Human Tumor Cell Lines Screen, one-dose screen (https://dtp.cancer.gov/discovery_development/nci-60/methodology.htm). This screening allows for qualified synthesized chemicals to be subjected to an anticancer test against 60 different cancer cell lines. Briefly, exemplary T1 or T2 was dissolved in DMSO:Glycerol, 9:1, at 4 mmol and kept frozen prior to use. For inoculation, a 96 well microtiter was used for the study of different cell lines. Based on the doubling time for each cell line, the well density varied. The plates were incubated at 37° ° C., 5% CO2, 95% air and 100% relative humidity for 1 day. The exemplary T1 or T2 or a control were added to the plates at a concentration of 10^−5 M. After 2 more days, the plates were fixed and stained to identify growth inhibition relative to cells without drug treatment. Anti-proliferative activity was determined based on careful analysis of historical DTP screening data. Cell death and net growth inhibition were determined based on a time zero control. A value of 100 indicates no growth inhibition. A value of 40 indicates 60% growth inhibition. A value of 0 indicates no net growth over the course of the experiment. A value of −40 indicates 40% lethality.

For assay [2], the system named is Non-Small Cell Lung Cancer cells (EKVX). To be noted: 10^-5 M, 2 days. How it is done:
as §1

Assay [3] has as its system Melanoma cells (MDA-MB-435). To be noted: MDA-MB-435 cells, 10^-5 M, 2 days. How it is done:
as §1

Assay [4] deals with Renal Cancer cells (CAKI-1). As to conditions: CAKI-1 cells, 10^-5 M, 2 days. How it is done:
as §1

On to `O=C1Nc2ccc(Cl)cc2/C1=N/N=C/c1ccsc1` [T2, 5-chloro-3-((E)-(thiophen-3-ylmethylene) hydrazono) indolin-2-one], for which, in assay [1], the “anticancer activity compared to control (reduction)” value is on record as about 73%.
On to `O=C1Nc2ccccc2/C1=N\N=Cc1cccs1` [T1, 3-((E)-(thiophen-2-ylmethylene)hydrazono)indolin-2-one], for which the “anticancer activity compared to control (reduction)” value was about 54% in assay [2], about 83% in assay [3] and about 48% in assay [4].
